Measurements reported in ChEMBL document CHEMBL4699477, “Tricyclic sulfones as potent, selective and efficacious RORγt inverse agonists - Exploring C6 and C8 SAR using late-stage functionalization” (Bioorg Med Chem Lett, 2020).
The source made the active and inactive calls. The calls are words filed in the database; no cut-off is given here.

Tests used:
Mus musculus = assay: Protection against recombinant human IL23-induced acanthosis C57BL/6 mouse model assessed as reduction in ear swelling at 50 mg/kg, po administered bid for 9 days; assay type: functional, organism-based; settings: time 9.0 day
[1] = Metabolic stability in human liver microsomes assessed as half life; assay type: ADME, Microsome
[2] = Metabolic stability in rat liver microsomes assessed as half life; assay type: ADME, Microsome
[3] = Metabolic stability in mouse liver microsomes assessed as half life; assay type: ADME, Microsome
[4] = GSH reactivity in human liver cytosol assessed as GSH adduct formation; assay type: ADME, subcellular, Cytoplasm
[5] = biological target: T1, Nuclear receptor ROR-gamma (Homo sapiens, UniProt P51449); assay: Inverse agonist activity at RORgammat in CD3 and CD28-stimulated human whole blood assessed as reduction in IL17A production incubated for 1 hr before CD3 and CD28 stimulation for 20 hrs by AlphaLISA method; assay type: tissue-based
T1 sequence (P51449 whole entry): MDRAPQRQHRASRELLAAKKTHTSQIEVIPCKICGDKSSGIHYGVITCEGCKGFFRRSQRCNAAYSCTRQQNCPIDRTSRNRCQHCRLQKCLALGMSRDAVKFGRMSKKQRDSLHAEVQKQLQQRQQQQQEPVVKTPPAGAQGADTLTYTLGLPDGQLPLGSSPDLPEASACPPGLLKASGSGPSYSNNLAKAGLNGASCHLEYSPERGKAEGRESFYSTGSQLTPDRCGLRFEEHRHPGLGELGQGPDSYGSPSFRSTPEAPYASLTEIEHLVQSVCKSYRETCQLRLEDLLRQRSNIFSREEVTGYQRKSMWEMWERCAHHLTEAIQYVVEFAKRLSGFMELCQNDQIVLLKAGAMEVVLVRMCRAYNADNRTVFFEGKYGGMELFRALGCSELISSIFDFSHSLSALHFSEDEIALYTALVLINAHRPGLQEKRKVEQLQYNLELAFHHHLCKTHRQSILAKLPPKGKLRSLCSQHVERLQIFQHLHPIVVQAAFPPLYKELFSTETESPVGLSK

[6] = biological target: T1, Nuclear receptor ROR-gamma; assay: Inverse agonist activity at Gal4-fused RORgammat (unknown origin)
[7] = Drug concentration in Balb/c mouse at 10 mg/kg, po measured after 24 hrs; assay type: ADME, organism-based; settings: in vivo, read-out: Drug uptake
[8] = Cmax in Balb/c mouse at 10 mg/kg, po; assay type: ADME, organism-based; design: route oral, dose 10 mg/kg; settings: in vivo

| half-life [1] [h] | half-life [2] [h] | half-life [3] [h] | Compound | other results |
| --- | --- | --- | --- | --- |
| – | – | – | O=C(O)[C@H]1CC[C@H](C(=O)N2CC[C@](c3ccc(C(F)(C(F)(F)F)C(F)(F)F)cc3)(S(=O)(=O)c3ccc(F)cc3)C2)CC1 | inhibition (Mus musculus): Active |
| > 2 | > 2 | > 2 | Cc1cc2c(cc1C(F)(C(F)(F)F)C(F)(F)F)CC[C@H]1N(C(=O)[C@H]3CC[C@H](C(=O)O)CC3)CC[C@@]21S(=O)(=O)c1ccc(F)cc1 | – |
| > 2 | > 2 | > 2 | C[C@H]1C[C@H](C(=O)O)CC[C@H]1C(=O)N1CC[C@@]2(S(=O)(=O)c3ccc(F)cc3)c3ccc(C(F)(C(F)(F)F)C(F)(F)F)cc3CC[C@@H]12 [BMS-986251] | Activity [4]: 6% |
| > 2 | 1.45 | > 2 | N#Cc1cc2c(cc1C(F)(C(F)(F)F)C(F)(F)F)CC[C@H]1N(C(=O)[C@H]3CC[C@H](C(=O)O)CC3)CC[C@@]21S(=O)(=O)c1ccc(F)cc1 | EC50 [5]: 0.013 µM; EC50 [6]: 0.017 µM; concentration at 24 h [7]: 1600 nM; Cmax [8]: 8600 nM |
| – | – | – | C[C@H]1C[C@H](C(=O)O)CC[C@H]1C(=O)N1CC[C@@]2(S(=O)(=O)c3ccccc3)c3ccc(C(F)(C(F)(F)F)C(F)(F)F)cc3CC[C@@H]12 | EC50 [5]: 0.052 µM |
| – | – | – | O=C(O)[C@H]1CC[C@H](C(=O)N2CC[C@@]3(S(=O)(=O)c4ccc(F)cc4)c4ccc(C(F)(C(F)(F)F)C(F)(F)F)cc4CC[C@@H]23)CC1 | concentration at 24 h [7]: 400 nM; Cmax [8]: 1400 nM |
| > 2 | 1.38 | > 2 | O=C(O)[C@H]1CC[C@H](C(=O)N2CC[C@@]3(S(=O)(=O)c4ccc(F)cc4)c4cc(Cl)c(C(F)(C(F)(F)F)C(F)(F)F)cc4CC[C@@H]23)CC1 | – |
